In patent publication US20110038959A1, “PLANT-ORIGIN DRUG FOR PREVENTING OR IMPROVING HYPERURICEMIA” (priority 2009, published 2011):

What was measured:
[1] = target: T1, buttermilk-derived xanthine oxidase (Bos taurus, UniProt P80457); test: Xanthine oxidase inhibitory activity assay (xanthine substrate, uric acid detected by absorbance at 295 nm); format: biochemical
T1 construct: an enzyme solution comprising buttermilk-derived xanthine oxidase dissolved at 0.2 units/ml in phosphate buffer; from tissue; host or cells: buttermilk
T1 sequence (P80457 whole entry): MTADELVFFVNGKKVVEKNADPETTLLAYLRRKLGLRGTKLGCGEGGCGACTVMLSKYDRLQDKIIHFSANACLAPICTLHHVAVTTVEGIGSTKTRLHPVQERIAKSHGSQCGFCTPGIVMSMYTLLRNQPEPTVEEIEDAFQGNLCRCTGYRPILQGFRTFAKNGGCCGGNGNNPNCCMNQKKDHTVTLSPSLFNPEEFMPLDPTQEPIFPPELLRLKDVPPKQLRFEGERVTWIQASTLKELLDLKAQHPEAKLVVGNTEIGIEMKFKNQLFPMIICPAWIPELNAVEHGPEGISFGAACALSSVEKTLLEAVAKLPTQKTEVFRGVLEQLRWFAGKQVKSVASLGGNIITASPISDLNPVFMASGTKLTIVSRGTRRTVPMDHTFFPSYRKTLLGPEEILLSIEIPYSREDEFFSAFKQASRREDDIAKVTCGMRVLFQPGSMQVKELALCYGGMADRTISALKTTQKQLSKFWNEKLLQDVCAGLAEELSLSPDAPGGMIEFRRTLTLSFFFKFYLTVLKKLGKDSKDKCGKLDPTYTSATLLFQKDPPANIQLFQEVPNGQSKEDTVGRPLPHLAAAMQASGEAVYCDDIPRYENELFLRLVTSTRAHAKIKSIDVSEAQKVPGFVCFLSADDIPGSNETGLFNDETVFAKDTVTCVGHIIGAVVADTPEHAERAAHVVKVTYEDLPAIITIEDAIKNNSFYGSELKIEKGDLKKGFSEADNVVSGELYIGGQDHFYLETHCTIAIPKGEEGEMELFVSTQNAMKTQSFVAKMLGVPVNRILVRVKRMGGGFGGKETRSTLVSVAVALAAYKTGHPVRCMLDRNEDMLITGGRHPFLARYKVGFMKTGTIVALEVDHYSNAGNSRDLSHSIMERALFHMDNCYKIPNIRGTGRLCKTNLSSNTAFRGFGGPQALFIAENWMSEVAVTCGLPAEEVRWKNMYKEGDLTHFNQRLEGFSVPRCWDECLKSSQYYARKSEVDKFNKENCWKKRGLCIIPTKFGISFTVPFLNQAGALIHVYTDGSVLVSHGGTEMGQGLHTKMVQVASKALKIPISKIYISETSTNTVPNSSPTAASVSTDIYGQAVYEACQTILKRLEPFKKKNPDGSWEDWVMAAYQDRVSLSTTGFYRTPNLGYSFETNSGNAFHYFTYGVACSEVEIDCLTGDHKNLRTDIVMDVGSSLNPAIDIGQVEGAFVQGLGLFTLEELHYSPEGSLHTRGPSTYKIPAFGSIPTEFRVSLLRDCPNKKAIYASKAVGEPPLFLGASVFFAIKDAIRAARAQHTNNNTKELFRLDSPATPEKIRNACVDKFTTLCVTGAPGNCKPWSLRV

[2] = tested on: potassium oxonate-induced hyperuricemic rat models; test: Uric acid level in blood of potassium oxonate-induced hyperuricemic rat models; format: in vivo, SD rats
Procedure: 5-week-old male SD rats were purchased from Japan SLC, Inc. and were acclimatized for 1 week. The rats were divided into groups based on body weight (each group consisting of 6 rats), and 5 groups were designated in total; i.e., a control group, a group to which the Artemisia extract is administered, a group to which the chrysanthemum extract is administered, a group to which the guava extract is administered, and a group to which the oregano extract is administered. At the outset, potassium oxonate (Sigma-Aldrich) was administered intraperitoneally to rats at a dose of 250 mg/kg of body weight to prepare potassium oxonate-induced hyperuricemic rat models. […] Blood serum was fractionated from the sampled blood via centrifugation and the uric acid level in the blood was measured. […] Blood serum was fractionated from the sampled blood via centrifugation and the uric acid level in the blood was measured. […] Blood serum was fractionated from the sampled blood via centrifugation and the uric acid level in the blood was measured.

O=C(/C=C/c1ccc(O)c(O)c1)c1ccc(O)c(O)c1O [Okanin, okanin]
xanthine oxidase activity compared with allopurinol (in words) ([1]; comparison of IC50 values, Table 2): more potent xanthine oxidase activity than allopurinol
IC50 ([1]; concentration inhibiting 50% of xanthine oxidase activity, solvent control = 100%): 1500 nM
Uric acid level in blood ([2]; 50 mg okanin per kg body weight 1 hour after potassium oxonate (250 mg/kg i.p.), blood sampled 2 hours after potassium oxonate, control group 4.92 ± 0.53): 4.10 ± 0.56 mg/dL
uric acid level after administration (in words) ([2]; okanin 50 mg/kg, blood 2 hours after potassium oxonate, versus control group, Table 5): significantly lowered uric acid level
